Test results taken from US11242335B2, “Fluorine-substituted indazole compounds and uses thereof” (SUNSHINE LAKE PHARMA CO., LTD., priority 2017, dated 2022).

The compounds below were run against T1, soluble guanylate cyclase (sGC) expressed by CHO-K1-Rat sGC monoclonal cell line (Rattus norvegicus, UniProt P19686+P20595) (assay: Effect on recombinant guanylate cyclase reporter cell line (CHO-K1-Rat sGC, Cisbio cGMP HTRF)). Details: activating soluble guanylate cyclase.
T1 construct: expressed in transfected cells; host or cells: CHO-K1
T1 sequence (P19686 1-690): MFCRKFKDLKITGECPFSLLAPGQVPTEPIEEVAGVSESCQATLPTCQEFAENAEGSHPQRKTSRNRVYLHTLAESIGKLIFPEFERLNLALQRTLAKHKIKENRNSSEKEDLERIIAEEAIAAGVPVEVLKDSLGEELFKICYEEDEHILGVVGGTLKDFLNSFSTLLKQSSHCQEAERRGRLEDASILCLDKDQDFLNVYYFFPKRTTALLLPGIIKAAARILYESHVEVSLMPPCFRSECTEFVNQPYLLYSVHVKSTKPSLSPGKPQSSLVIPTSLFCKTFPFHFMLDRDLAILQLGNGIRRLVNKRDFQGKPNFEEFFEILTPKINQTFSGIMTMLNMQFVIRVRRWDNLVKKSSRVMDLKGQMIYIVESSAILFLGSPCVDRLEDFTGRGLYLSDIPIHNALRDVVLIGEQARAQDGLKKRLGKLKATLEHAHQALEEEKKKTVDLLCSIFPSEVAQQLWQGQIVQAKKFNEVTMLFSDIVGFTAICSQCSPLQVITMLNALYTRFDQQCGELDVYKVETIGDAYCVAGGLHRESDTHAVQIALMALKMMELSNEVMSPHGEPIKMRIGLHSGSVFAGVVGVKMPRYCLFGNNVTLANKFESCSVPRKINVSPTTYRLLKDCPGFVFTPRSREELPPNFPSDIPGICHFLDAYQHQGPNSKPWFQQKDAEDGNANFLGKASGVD
T1 sequence (P20595 1-619): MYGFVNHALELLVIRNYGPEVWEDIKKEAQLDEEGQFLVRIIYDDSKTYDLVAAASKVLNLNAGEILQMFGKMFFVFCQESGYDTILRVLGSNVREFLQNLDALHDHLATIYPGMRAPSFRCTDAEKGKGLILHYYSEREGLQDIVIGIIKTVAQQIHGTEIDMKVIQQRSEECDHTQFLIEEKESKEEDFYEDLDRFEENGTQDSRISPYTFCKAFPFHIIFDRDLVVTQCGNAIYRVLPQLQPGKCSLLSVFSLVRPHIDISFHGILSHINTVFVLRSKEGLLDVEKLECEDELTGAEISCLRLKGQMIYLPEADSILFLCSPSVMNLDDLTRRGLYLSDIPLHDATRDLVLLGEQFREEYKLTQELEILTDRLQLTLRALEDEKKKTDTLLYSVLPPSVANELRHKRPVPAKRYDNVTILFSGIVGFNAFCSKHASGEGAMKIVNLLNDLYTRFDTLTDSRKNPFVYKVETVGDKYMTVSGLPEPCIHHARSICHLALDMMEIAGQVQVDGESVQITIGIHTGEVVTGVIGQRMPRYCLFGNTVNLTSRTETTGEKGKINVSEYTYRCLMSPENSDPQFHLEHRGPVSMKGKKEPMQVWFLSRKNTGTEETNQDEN
Type: cell-based
From the text: Transfection of Soluble Guanylate Cyclase (sGC) gene into CHO-K1 cells and selection of cells with stably and highly expressed sGC: Rat sGCα1 and Rat sGCβ1 Genes were synthesized, and then pcDNA3.1(+)-rat sGCα1 and pcDNA3.1/Hygro (+)-rat sGCβ1 plasmid were constructed; the plasmid was co-transfected into CHO-K1 cells, and a positive clone cell line stably expressing CHO-K1-Rat sGC was selected using the Cisbio cGMP HTRF assay kit.
The activity of the compound on the CHO-K1-Rat sGC monoclonal cell line was determined: The CHO-K1-Rat sGC monoclonal cell line was cultured, and used for test operation at degree of fusion of about 70% to 90%. The cells were resuspended in complete medium after TrypLE digestion; the cells were inoculated in a 384-well (low volume tissues culture treated) cell culture plate at a seeding density of 7500/well in 25 μL of complete medium and incubated at 37° C. in 5% CO2 atmosphere for 20 hours; the test compounds were dissolved and dilute with DMSO to give 10 concentration gradients (2× working concentration); 384-well cell culture plates were centrifugated (200 g) for 3 seconds by inversion at RT, medium was removed; The test compounds in each different concentration gradient and corresponding reagent were added into each cell well according to the detection process of Cisbio cGMP HTRF assay kit. The data were collected with Envision HTRF detector and the EC50 value of each compound in activating soluble guanylate cyclase was calculated.
Work on Nc1nc(-c2nn(Cc3ccccc3F)c3c(F)cccc23)ncc1C(=O)N1CC(O)C1 [Example 54, (4-amino-2-(7-fluoro-1-(2-fluorobenzyl)-1H-indazol-3-yl)pyrimidin-5-yl) (3-hydroxyazetidin-1-yl)methanone] yielded an EC50 of 140 nM.
CN(C)C(=O)c1cnc(-c2nn(Cc3ccccc3F)c3c(F)cccc23)nc1N [Example 45, 4-amino-2-(7-fluoro-1-(2-fluorobenzyl)-1H-indazol-3-yl)-N,N-dimethyl pyrimidine-5-carboxamide] showed an EC50 of 160 nM.
Nc1nc(-c2nn(Cc3ccccc3F)c3c(F)cccc23)ncc1C(=O)NC1CC1 [Example 31, 4-amino-N-cyclopropyl-2-(7-fluoro-1-(2-fluorobenzyl)-1H-indazol-3-yl) pyrimidine-5-carboxamide] gave an EC50 of 35 nM.
O=C(NC1CC1)c1cnc(-c2nn(Cc3ccccc3F)c3c(F)cccc23)nc1 [Example 57, N-cyclopropyl-2-(7-fluoro-1-(2-fluorobenzyl)-1H-indazol-3-yl)pyrimidine-5-carboxamide] showed an EC50 of 79 nM.
With Nc1nc(-c2nn(Cc3ccccc3F)c3c(F)cccc23)nc(N)c1NC(=O)C1CCCO1 (stereo not drawn) [Example 16, N-(4,6-diamino-2-(7-fluoro-1-(2-fluorobenzyl)-1H-indazol-3-yl)pyrimidin-5-yl)tetrahydrofuran-2-carboxamide] the EC50 was 690 nM.
In the case of CC(Nc1c(N)nc(-c2nn(Cc3ccccc3F)c3c(F)cccc23)nc1N)C1CCOCC1 (stereo not drawn) [Example 28, 2-(7-fluoro-1-(2-fluorobenzyl)-1H-indazol-3-yl)-N^5-(1-(tetrahydro-2H-pyran-4-yl)ethyl)pyrimidine-4,5,6-triamine], the EC50 is reported as 94 nM.
Compound Nc1nc(-c2nn(Cc3ccccc3F)c3c(F)cccc23)nc(N)c1C(=O)O [Example 42, 4,6-diamino-2-(7-fluoro-1-(2-fluorobenzyl)-1H-indazol-3-yl)pyrimidine-5-carboxylic acid] has an EC50 of 760 nM.
Work on Nc1nc(-c2nn(Cc3ccccc3F)c3c(F)cccc23)ncc1C(=O)NCCO [Example 49, 4-amino-2-(7-fluoro-1-(2-fluorobenzyl)-1H-indazol-3-yl)-N-(2-hydroxyethyl)pyrimidine-5-carboxamide] yielded an EC50 of 270 nM.
Compound CNC(=O)c1cnc(-c2nn(Cc3ccccc3F)c3c(F)cccc23)nc1 [Example 56, 2-(7-fluoro-1-(2-fluorobenzyl)-1H-indazol-3-yl)-N-methylpyrimidine-5-carboxamide] has an EC50 of 340 nM.
Compound OCCN1CCN(c2nc(-c3nn(Cc4ccccc4F)c4c(F)cccc34)ncc2F)CC1 [Example 62, 2-(4-(5-fluoro-2-(7-fluoro-1-(2-fluorobenzyl)-1H-indazol-3-yl)pyrimidin-4-yl)piperazin-1-yl)ethanol] has an EC50 of 75 nM.
CNC(=O)c1cnc(-c2nn(Cc3ccccc3F)c3c(F)cccc23)nc1N [Example 32, 4-amino-2-(7-fluoro-1-(2-fluorobenzyl)-1H-indazol-3-yl)-N-methyl pyrimidine-5-carboxamide] gave an EC50 of 89 nM.
With Nc1nc(-c2nn(Cc3ccccc3F)c3c(F)cccc23)nc(N)c1NC(=O)C1CCCCO1 (stereo not drawn) [Example 17, N-(4,6-diamino-2-(7-fluoro-1-(2-fluorobenzyl)-1H-indazol-3-yl)pyrimidin-5-yl)tetrahydro-2H-pyran-2-carboxamide] the EC50 was 420 nM.
Work on Nc1nc(-c2nn(Cc3ccccc3F)c3c(F)cccc23)ncc1C(=O)O [Example 30, 4-amino-2-(7-fluoro-1-(2-fluorobenzyl)-1H-indazol-3-yl)pyrimidine-5-carboxylic acid] yielded an EC50 of 820 nM.
Work on Nc1nc(-c2nn(Cc3ccccc3F)c3c(F)cccc23)ncc1C(=O)N1CCOCC1 [Example 46, (4-amino-2-(7-fluoro-1-(2-fluorobenzyl)-1H-indazol-3-yl)pyrimidin-5-yl) (morpholino)methanone] yielded an EC50 of 200 nM.
Nc1nc(-c2nn(Cc3ccccc3F)c3c(F)cccc23)nc(N)c1C(=O)NC1CC1 [Example 44, 4,6-diamino-N-cyclopropyl-2-(7-fluoro-1-(2-fluorobenzyl)-1H-indazol-3-yl) pyrimidine-5-carboxamide] gave an EC50 of 340 nM.
Nc1nc(-c2nn(Cc3ccccc3F)c3c(F)cccc23)ncc1C(=O)N1CCC(F)(F)CC1 [Example 52, (4-amino-2-(7-fluoro-1-(2-fluorobenzyl)-1H-indazol-3-yl)pyrimidin-5-yl) (4,4-difluoropiperidin-1-yl)methanone] showed an EC50 of 110 nM.
OCCCNc1nc(-c2nn(Cc3ccccc3F)c3c(F)cccc23)ncc1F [Example 59, 3-((5-fluoro-2-(7-fluoro-1-(2-fluorobenzyl)-1H-indazol-3-yl)pyrimidin-4-yl)amino)propan-1-ol] gave an EC50 of 58 nM.
In the case of Nc1nc(-c2nn(Cc3ccccc3F)c3c(F)cccc23)ncc1C(=O)N1CCCC1 [Example 47, (4-amino-2-(7-fluoro-1-(2-fluorobenzyl)-1H-indazol-3-yl)pyrimidin-5-yl) (pyrrolidin-1-yl)methanone], the EC50 is reported as 120 nM.
Nc1nc(-c2nn(Cc3ccccc3F)c3c(F)cccc23)nc(N)c1NC1CCOC1 (stereo not drawn) [Example 12, 2-(7-fluoro-1-(2-fluorobenzyl)-1H-indazol-3-yl)-N^5-(tetrahydrofuran-3-yl)pyrimidine-4,5,6-triamine] showed an EC50 of 120 nM.
In the case of CC(C)(O)CNc1c(N)nc(-c2nn(Cc3ccccc3F)c3c(F)cccc23)nc1N [Example 26, 1-((4,6-diamino-2-(7-fluoro-1-(2-fluorobenzyl)-1H-indazol-3-yl)pyrimidin-5-yl)amino)-2-methylpropan-2-ol], the EC50 is reported as 100 nM.
With Nc1nc(-c2nn(Cc3ccccc3F)c3c(F)cccc23)ncc1C(=O)N1CCS(=O)(=O)CC1 [Example 51, (4-amino-2-(7-fluoro-1-(2-fluorobenzyl)-1H-indazol-3-yl)pyrimidin-5-yl) (1,1-dioxidothiomorpholino)methanone] the EC50 was 420 nM.
Nc1nc(-c2nn(Cc3ccccc3F)c3c(F)cccc23)nc(N)c1N1CCOCC1 [Example 14, 2-(7-fluoro-1-(2-fluorobenzyl)-1H-indazol-3-yl)-5-morpholinopyrimidine-4,6-diamine] showed an EC50 of 62 nM.
In the case of Nc1nc(-c2nn(Cc3ccccc3F)c3cc(F)ccc23)nc(N)c1NC1CCOC1 (stereo not drawn) [Example 9, 2-(6-fluoro-1-(2-fluorobenzyl)-1H-indazol-3-yl)-N^5-(tetrahydrofuran-3-yl) pyrimidine-4,5,6-triamine], the EC50 is reported as 680 nM.
Oc1nc(-c2nn(Cc3ccccc3F)c3c(F)cccc23)ncc1F [Example 25, 5-fluoro-2-(7-fluoro-1-(2-fluorobenzyl)-1H-indazol-3-yl)pyrimidin-4-ol] was tested, and the EC50 was 860 nM.
Work on OCCNc1nc(-c2nn(Cc3ccccc3F)c3c(F)cccc23)ncc1F [Example 60, 2-((5-fluoro-2-(7-fluoro-1-(2-fluorobenzyl)-1H-indazol-3-yl)pyrimidin-4-yl)amino)ethanol] yielded an EC50 of 120 nM.
CN1CCN(C(=O)c2cnc(-c3nn(Cc4ccccc4F)c4c(F)cccc34)nc2N)CC1 [Example 53, (4-amino-2-(7-fluoro-1-(2-fluorobenzyl)-1H-indazol-3-yl)pyrimidin-5-yl) (4-methylpiperazin-1-yl)methanone] gave an EC50 of 390 nM.
COC(=O)N(C)c1c(N)nc(-c2nn(Cc3cncnc3)c3c(F)cccc23)nc1N [Example 34, methyl (4,6-diamino-2-(7-fluoro-1-(pyrimidin-5-ylmethyl)-1H-indazol-3-yl)pyrimidin-5-yl)(methyl)carbamate] was tested, and the EC50 was 810 nM.
